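A five-concentration, 48-hour dose response in 96-well plates underlies each endpoint, interpolated linearly between surrounding concentrations. TGI is the concentration that stops growth completely.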 Where a SMILES comes first, the peptide text is derived from it. [ ]: non-standard residue; d: D form. The star is where a group is joined. ξ: configuration not given here. X37 = O=C(OCc1ccccc1)[C@@H]1CCC[C@H]1N*; Fmoc = O=C(OCC1c2ccccc2-c2ccccc21)*; ξW = NC(Cc1c[nH]c2ccccc12)C(=O)O; ξF = NC(Cc1ccccc1)C(=O)O; Boc = CC(C)(C)OC(=O)*; ξK = NCCCCC(N)C(=O)O; ξT = CC(O)C(N)C(=O)O; tBu = CC(C)(C)*
Assays:
Assay in all cases: growth of human tumour cells (NCI), 48 h
[1] = test system: COLO 205 colon
[2] = test system: HCT-15 colon
[3] = test system: HT29 colon
[4] = test system: U251 CNS
[5] = test system: SR leukemia
[6] = test system: T-47D breast
[7] = test system: 786-0 renal
[8] = test system: RXF 393 renal
[9] = test system: HOP-92 NSCLC
[10] = test system: UACC-62 melanoma
[11] = test system: OVCAR-4 ovarian
[12] = test system: SK-OV-3 ovarian
[13] = test system: MDA-MB-435
[14] = test system: SK-MEL-2 melanoma
[15] = test system: OVCAR-8 ovarian
[16] = test system: NCI-H23 lung
[17] = test system: OVCAR-3 ovarian
[18] = test system: SNB-75 CNS
[19] = test system: EKVX NSCLC
[20] = test system: MCF7 breast

`CC(OC(C)(C)C)C(NC(=O)C(CCCCNC(=O)OC(C)(C)C)NC(=O)C(Cc1c[nH]c2ccccc12)NC(=O)C(Cc1ccccc1)NC(=O)OCC1c2ccccc2-c2ccccc21)C(=O)NC(Cc1ccccc1)C(=O)N[C@@H]1CCC[C@H]1C(=O)OCc1ccccc1` (stereo not given in full) (Fmoc-[ξF][ξW][ξK](Boc)[ξT](tBu)[ξF]-X37) was tested, and the TGI [1] was > 100 µM, the TGI [2] was > 100 µM and the TGI [3] was > 100 µM. For the same compound, the TGI [4] was > 100 µM, the TGI [5] was > 100 µM and the TGI [6] was > 100 µM. For the same compound, the TGI [7] was > 100 µM, the TGI [8] was > 100 µM and the TGI [9] was > 100 µM. The TGI [10] was > 100 µM, the TGI [11] was > 100 µM and the TGI [12] was > 100 µM. For the same compound, the TGI [13] was > 100 µM, the TGI [14] was > 100 µM and the TGI [15] was > 100 µM. The TGI [16] was > 100 µM, the TGI [17] was > 100 µM and the TGI [18] was > 100 µM. The TGI [19] was > 100 µM and the TGI [20] was > 100 µM.

`NC12c3c4cccc3Oc3cccc(c31)Oc1cccc(c12)O4` was tested, and the TGI [1] was > 50 µM, the TGI [2] was > 50 µM and the TGI [3] was > 50 µM. For the same compound, the TGI [4] was > 50 µM, the TGI [5] was > 50 µM and the TGI [6] was > 50 µM. The TGI [7] was > 50 µM, the TGI [8] was > 50 µM and the TGI [9] was > 50 µM. The TGI [10] was > 50 µM, the TGI [11] was > 50 µM and the TGI [12] was > 50 µM. The TGI [13] was > 50 µM, the TGI [14] was > 50 µM and the TGI [15] was > 50 µM. The TGI [16] was > 50 µM, the TGI [17] was > 50 µM and the TGI [18] was > 50 µM. For the same compound, the TGI [19] was > 50 µM and the TGI [20] was > 50 µM.

In the case of `C(=N\NC1=NCCCN1)/c1ccc(-c2cn3cc(/C=N/NC4=NCCCN4)ccc3n2)cc1`, the TGI [1] is reported as > 100 µM, the TGI [2] is reported as > 100 µM and the TGI [3] is reported as > 71.7 µM. For the same compound, the TGI [4] was > 100 µM, the TGI [5] was > 29 µM and the TGI [6] was > 100 µM. The TGI [7] was > 100 µM, the TGI [8] was > 100 µM and the TGI [9] was > 100 µM. The TGI [10] was > 100 µM, the TGI [11] was > 100 µM and the TGI [12] was > 100 µM. For the same compound, the TGI [13] was > 100 µM, the TGI [14] was > 100 µM and the TGI [15] was > 89 µM. For the same compound, the TGI [16] was > 100 µM, the TGI [17] was > 100 µM and the TGI [18] was > 100 µM. The TGI [19] was > 100 µM and the TGI [20] was > 100 µM.

`S=C1c2cc(Cl)ccc2NC(=NC2CCCC2)C2CSCN12` (stereo not given) was tested, and the TGI [1] was > 100 µM, the TGI [2] was > 100 µM and the TGI [3] was > 100 µM. The TGI [4] was > 100 µM, the TGI [5] was > 100 µM and the TGI [6] was > 100 µM. The TGI [7] was > 100 µM, the TGI [8] was > 100 µM and the TGI [9] was > 100 µM. For the same compound, the TGI [10] was > 100 µM, the TGI [11] was > 100 µM and the TGI [12] was > 100 µM. For the same compound, the TGI [13] was > 100 µM, the TGI [14] was > 100 µM and the TGI [15] was > 100 µM. For the same compound, the TGI [16] was > 100 µM, the TGI [17] was > 100 µM and the TGI [18] was > 100 µM. The TGI [19] was > 100 µM and the TGI [20] was > 100 µM.

In the case of `c1ccc(COc2nc3ccc(C45CC6CC(CC(C6)C4)C5)cc3[nH]2)cc1`, the TGI [1] is reported as 21.2 µM, the TGI [2] is reported as > 29.5 µM and the TGI [3] is reported as > 100 µM. For the same compound, the TGI [4] was > 78.5 µM, the TGI [5] was > 100 µM and the TGI [6] was 34.1 µM. The TGI [7] was > 100 µM, the TGI [8] was 55.8 µM and the TGI [9] was 49.8 µM. For the same compound, the TGI [10] was > 100 µM, the TGI [11] was > 100 µM and the TGI [12] was > 100 µM. For the same compound, the TGI [13] was > 94 µM, the TGI [14] was 52.6 µM and the TGI [15] was > 100 µM. The TGI [16] was > 56.6 µM, the TGI [17] was > 100 µM and the TGI [18] was > 86.5 µM. For the same compound, the TGI [19] was > 100 µM and the TGI [20] was > 100 µM.

For `CC(C)(C)c1cc(C2COC(=O)COCCOCC(=O)OCCOCCO2)cc(C(C)(C)C)c1O` (stereo not given), the TGI [1] was > 100 µM, the TGI [2] was > 100 µM and the TGI [3] was > 100 µM. For the same compound, the TGI [4] was > 100 µM, the TGI [5] was 64.2 µM and the TGI [6] was > 31.6 µM. The TGI [7] was 32.5 µM, the TGI [8] was 47 µM and the TGI [9] was 59.4 µM. The TGI [10] was > 100 µM, the TGI [11] was > 100 µM and the TGI [12] was > 78.4 µM. The TGI [13] was > 100 µM, the TGI [14] was > 100 µM and the TGI [15] was > 100 µM. For the same compound, the TGI [16] was 99.1 µM, the TGI [17] was > 100 µM and the TGI [18] was 49.6 µM. For the same compound, the TGI [19] was > 100 µM and the TGI [20] was > 100 µM.

With `C=C(C)C1CC2=C(C(=O)OC)C=C(O2)C(C(=C)C)[C@@H]2OC(=O)/C(=C\C1O)[C@H]2N(C)C` (stereo not given in full) the TGI [1] was 29 µM, the TGI [2] was 22.5 µM and the TGI [3] was > 100 µM. The TGI [4] was 33 µM, the TGI [5] was > 41.2 µM and the TGI [6] was 45.9 µM. It also gave a TGI [7] of 21 µM, a TGI [8] of 15.7 µM and a TGI [9] of 20.2 µM. The TGI [10] was 28.3 µM, the TGI [11] was 21 µM and the TGI [12] was 64.1 µM. The TGI [13] was 25 µM, the TGI [14] was 26.7 µM and the TGI [15] was 25.8 µM. It also gave a TGI [16] of 28.8 µM, a TGI [17] of 25.7 µM and a TGI [18] of 30.4 µM. The TGI [19] was 29 µM and the TGI [20] was 24.9 µM.

In the case of `COc1cc(/C=C\c2ccc(SC)cc2)cc(OC)c1OC`, the TGI [1] is reported as 0.108 µM, the TGI [2] is reported as 29.4 µM and the TGI [3] is reported as 0.59 µM. For the same compound, the TGI [4] was 1.11 µM, the TGI [5] was 15.1 µM and the TGI [6] was > 100 µM. The TGI [7] was 18.5 µM, the TGI [8] was 0.0402 µM and the TGI [9] was > 46.1 µM. The TGI [10] was > 100 µM, the TGI [11] was > 100 µM and the TGI [12] was 1.75 µM. The TGI [13] was > 100 µM, the TGI [14] was 0.841 µM and the TGI [15] was > 41 µM. For the same compound, the TGI [16] was 0.408 µM, the TGI [17] was 57.8 µM and the TGI [18] was > 100 µM. The TGI [19] was > 100 µM and the TGI [20] was > 100 µM.

With `CCOC(=O)c1cc(-c2ccc(OC)c(OC)c2)cn1C` the TGI [1] was > 10 µM, the TGI [2] was > 10 µM and the TGI [3] was > 10 µM. The TGI [4] was > 10 µM, the TGI [5] was > 10 µM and the TGI [6] was > 10 µM. The TGI [7] was > 10 µM, the TGI [8] was > 10 µM and the TGI [9] was > 10 µM. For the same compound, the TGI [10] was > 10 µM, the TGI [11] was > 10 µM and the TGI [12] was > 10 µM. The TGI [13] was > 10 µM, the TGI [14] was > 10 µM and the TGI [15] was > 10 µM. The TGI [16] was > 10 µM, the TGI [17] was > 10 µM and the TGI [18] was > 10 µM. The TGI [19] was > 10 µM and the TGI [20] was > 10 µM.
